Results from article PMC6923765, “Structural Design, Synthesis, and Preliminary Biological Evaluation of Novel Dihomooxacalix[4]arene-Based Anti-tumor Agents” (Frontiers in Chemistry, 2019).
Like-named read-outs stand apart in the source and are kept apart here.

Experiments:
[1] = tested on: MCF-7 cells (human breast cancer cells); test: SRB cytotoxicity assay, MCF-7 cells; assay type: cell-based; conditions: for inhibition at 10 µM: MCF7, 10 μM, 72 h
Protocol: (§1) A549 cells (human lung carcinoma cells), MCF-7 cells (human breast cancer cells), HeLa cells (human cervical cancer cells), HepG2 cells (human hepatocellular carcinoma cells), and HUVEC cells (human umbilical vein endothelial cells) were kindly provided by WeiFang Caleb Pharmaceuticals, Inc. A549 cells were cultured in Ham's F12K medium containing 10% fetal bovine serum, 2 mM L-glutamine, and 1.5 g/L sodium bicarbonate; MCF-7 cells were cultured on cell culture flask using RPMI 1640 medium with 2 mM L-glutamine adjusted to contain 1.5 g/L sodium bicarbonate, 4.5 g/L glucose, 10 mM HEPES, 1.0 mM sodium pyruvate, and 10% fetal bovine serum. Hela cells were cultured on Cell culture flask using 2 mM L-glutamine adjusted to contain 1.5 g/L sodium bicarbonate, 4.5 g/L glucose, 10 mM HEPES, and 1.0 mM sodium pyruvate in RPMI 1640 medium supplemented with 0.5 mg/ml G418 and 10% fetal bovine serum. HepG2 cells were cultured in minimum essential medium (Eagle) with 2 mM L-glutamine, Earle's BSS, 1.5 g/L sodium bicarbonate, 0.1 mM non-essential amino acids, 1.0 mM sodium pyruvate, and 10% fetal bovine serum. HUVEC cells were cultured in M199 medium containing 2 mM L-glutamine adjusted to contain 1.5 g/L sodium bicarbonate, 4.5 g/L glucose, 10 mM HEPES, 1.0 mM sodium pyruvate, ECGS, and 10% fetal bovine serum. All cells were cultured at 37°C in 5% CO2.
(§2) The cell proliferation of adherent cells was determined by sulforhodamine B assay (SRB) (Quan et al., [2009]; Li et al., [2017]). All cells were cultured in culture medium containing 10% fetal bovine serum and have been in the logarithmic growth phase. All cell types were seeded in a 96-well culture plate at a concentration of 1–5 × 10^4 cells per well at 37°C in a 5% CO2 incubator for 24 h. The cells were then exposed to seven drug concentrations of dihomooxacalix[4]arene derivatives for 72 h with each concentration located in three wells. Then, the cells were fixed with trichloroacetic acid (TCA). After washing, SRB working solution was added to the cells to […]. SRB combined with protein was dissolved in Tris base. OD values were measured for each well with a SPECTRA max 190 Cell microplate reader under 540 nm wavelength. According to the OD value, the cell growth inhibition rate was calculated.

[2] = tested on: HUVEC cells (human umbilical vein endothelial cells); test: SRB cytotoxicity assay, HUVEC normal cells; assay type: cell-based
Protocol: as §1, §2

[3] = tested on: HeLa cells (human cervical cancer cells); test: SRB cytotoxicity assay, HeLa cells; assay type: cell-based
Protocol: as §1, §2

[4] = tested on: HepG2 cells (human hepatocellular carcinoma cells); test: SRB cytotoxicity assay, HepG2 cells; assay type: cell-based
Protocol: as §1, §2

[5] = tested on: A549 cells (human lung carcinoma cells); test: SRB cytotoxicity assay, A549 cells; assay type: cell-based
Protocol: as §1, §2

[6] = MCF7, 72 h, SRB, read-out: IC50 (μM) MCF-7
[7] = Homo sapiens, HUVEC, 72 h, 10 μM, SRB, toxicity to normal cells
[8] = 72 h, SRB, read-out: IC50 (μM) HeLa
[9] = 72 h, SRB, read-out: IC50 (μM) HepG2
[10] = 72 h, SRB, read-out: IC50 (μM) A549

| melting point [°C] | SMILES | inhibition at 10 µM ([1]; SRB) [%] | IC50 [1, 6] [µM] | % inhibition at 10 μM HUVEC ([2]; 10 μM, 72 h, SRB, toxicity to normal cells) [%] | inhibition at 10 µM [2, 7] [%] | inhibition at 10 µM ([3]; 72 h, SRB) [%] | IC50 [3, 8] [µM] | inhibition at 10 µM ([4]; 72 h, SRB) [%] | IC50 [4, 9] [µM] | inhibition at 10 µM ([5]; 72 h, SRB) [%] | IC50 [5, 10] [µM] | IC50 ([1]; MCF7, printed in the % inhibition column of Table 1, read-out: IC50 MCF-7 (positive control)) [µM] | IC50 ([2]; Homo sapiens, HUVEC, printed in the % inhibition column of Table 1, read-out: IC50 HUVEC (positive control)) [µM] | IC50 ([3]; HeLa, printed in the % inhibition column of Table 1, read-out: IC50 HeLa (positive control)) [µM] | IC50 ([4]; printed in the % inhibition column of Table 1, read-out: IC50 HepG2 (positive control)) [µM] | IC50 ([5]; printed in the % inhibition column of Table 1, read-out: IC50 A549 (positive control)) [µM] |
| --- | --- | --- | --- | --- | --- | --- | --- | --- | --- | --- | --- | --- | --- | --- | --- | --- |
|  | CC(C)(C)c1cc2c(O)c(c1)Cc1cc(C(C)(C)C)cc(c1OCC(=O)NCCO)Cc1cc(C(C)(C)C)cc(c1O)Cc1cc(C(C)(C)C)cc(c1OCC(=O)NCCO)C2 [CLX-4, 5,11,17,23-tetra-tert-butyl-25,27-bis [N-(2-hydroxyethyl)aminocarbonylmethoxyl] calix[4]arene, reference compound] | 99 | 2.1 ± 0.4 | 16 | 18 | 92 | 1.9 ± 0.2 | 94 | 6.6 ± 0.8 | 93 | 2.8 ± 0.3 |  |  |  |  |  |
| 210.7 to 212.5 | CC(C)(C)c1cc2c(O)c(c1)Cc1cc(C(C)(C)C)cc(c1OCC(=O)N(CCO)CCO)Cc1cc(C(C)(C)C)cc(c1O)Cc1cc(C(C)(C)C)cc(c1OCC(=O)N(CCO)CCO)COC2 [Compound 4B, 7,13,19,25-tetra-tert-butyl-28,30-di-hydroxy-27,29-di-(N,N-bis(2-hydroxyethyl)-aminocarbonylmethoxyl)-2,3-dihomo−3-oxacalix[4]arene] | 73 | 4.4 ± 0.7 |  | 23 | 100 | 1.1 ± 0.5 | 39 | 3.8 ± 0.3 | 66 | 3.9 ± 0.5 |  |  |  |  |  |
| 129.4 to 131.2 | CC(C)(C)c1cc2c(O)c(c1)Cc1cc(C(C)(C)C)cc(c1OCC(=O)NCCCCN)Cc1cc(C(C)(C)C)cc(c1O)Cc1cc(C(C)(C)C)cc(c1OCC(=O)NCCCCN)COC2 [Compound 4C, 7,13,19,25-tetra-tert-butyl-28,30-di-hydroxy-27,29-di-(N-(4-aminobutyl)-aminocarbonylmethoxyl)-2,3-dihomo-3-oxacalix[4] arene] | 78 | 5.4 ± 2.6 |  | 55 | 96 | 2.3 ± 0.1 | 64 | 5 ± 0.8 | 42 | 3.3 ± 0.7 |  |  |  |  |  |
| 204.8 to 206.3 | CC(C)(C)c1cc2c(O)c(c1)Cc1cc(C(C)(C)C)cc3c1OCC(=O)NCCNC(=O)COc1c(cc(C(C)(C)C)cc1Cc1cc(C(C)(C)C)cc(c1O)C3)COC2 [Compound 4E] | 50 |  |  | 26 | 46 |  | 21 |  | 60 | 12.4 ± 2.2 |  |  |  |  |  |
| 189.5 to 191.4 | CC(C)(C)c1cc2c(O)c(c1)Cc1cc(C(C)(C)C)cc3c1OCC(=O)NCCCNC(=O)COc1c(cc(C(C)(C)C)cc1Cc1cc(C(C)(C)C)cc(c1O)C3)COC2 [Compound 4F] | 46 |  |  | 42 | 59 |  | 9 |  | 63 | 2.9 ± 0.7 |  |  |  |  |  |
| 157.6 to 158.7 | CC(C)(C)c1cc2c(O)c(c1)Cc1cc(C(C)(C)C)cc3c1OCC(=O)NCCCCNC(=O)COc1c(cc(C(C)(C)C)cc1Cc1cc(C(C)(C)C)cc(c1O)C3)COC2 [Compound 4G] | 34 |  |  | 34 | 40 |  | 16 |  | 21 |  |  |  |  |  |  |
| 138.9 to 141.2 | CCNC(=O)COc1c2cc(C(C)(C)C)cc1Cc1cc(C(C)(C)C)cc(c1O)Cc1cc(C(C)(C)C)cc(c1OCC(=O)NCC)Cc1cc(C(C)(C)C)cc(c1O)COC2 [Compound 4H, 7,13,19,25-tetra-tert-butyl-28,30-di-hydroxy-27,29-di-(N-ethyl-aminocarbonylmethoxyl)-2,3-dihomo-3-oxacalix [4]arene] | 37 |  |  | 6 | 41 |  | 31 |  | 31 |  |  |  |  |  |  |
| 133.3 to 135.7 | CC(C)NC(=O)COc1c2cc(C(C)(C)C)cc1Cc1cc(C(C)(C)C)cc(c1O)Cc1cc(C(C)(C)C)cc(c1OCC(=O)NC(C)C)Cc1cc(C(C)(C)C)cc(c1O)COC2 [Compound 4I, 7,13,19,25-tetra-tert-butyl-28,30-di-hydroxy-27,29-di-(N-isopropyl-aminocarbonylmethoxyl)-2,3-dihomo-3-oxa calix[4]arene] | 17 |  |  | 16 | 44 |  | 9 |  | 45 |  |  |  |  |  |  |
| 128.1 to 130.8 | CC(C)CNC(=O)COc1c2cc(C(C)(C)C)cc1Cc1cc(C(C)(C)C)cc(c1O)Cc1cc(C(C)(C)C)cc(c1OCC(=O)NCC(C)C)Cc1cc(C(C)(C)C)cc(c1O)COC2 [Compound 4J, 7,13,19,25-tetra-tert-butyl-28,30-di-hydroxy-27,29-di-(N-isobutyl-aminocarbonylmethoxyl)-2,3-dihomo-3-oxacalix [4]arene] | 40 |  |  | 0 | 35 |  | 10 |  | 54 | 16.9 ± 3.2 |  |  |  |  |  |
| 119.5 to 120.8 | CCCCNC(=O)COc1c2cc(C(C)(C)C)cc1Cc1cc(C(C)(C)C)cc(c1O)Cc1cc(C(C)(C)C)cc(c1OCC(=O)NCCCC)Cc1cc(C(C)(C)C)cc(c1O)COC2 [Compound 4K, 7,13,19,25-tetra-tert-butyl-28,30-di-hydroxy-27,29-di-(N-butyl-aminocarbonylmethoxyl)-2,3-dihomo-3-oxacalix[4] arene] | 41 |  |  | 1 | 42 |  | 6 |  | 65 | 4.5 ± 1.4 |  |  |  |  |  |
| 138.3 to 140.5 | CC(C)(C)c1cc2c(O)c(c1)Cc1cc(C(C)(C)C)cc(c1OCC(=O)NCCO)Cc1cc(C(C)(C)C)cc(c1O)Cc1cc(C(C)(C)C)cc(c1OCC(=O)NC1CCCC1)COC2 [Compound 4Q, 7,13,19,25-tetra-tert-butyl-28,30-di-hydroxy-27-(N-clopentyl-aminocarbonylmethoxyl)-29-(N-(2-hydroxyethyl)-aminocarbonylmethoxyl)-2,3-dihomo-3-oxacalix[4]arene] |  |  |  |  |  |  |  |  |  |  |  |  |  |  |  |
| 120.7 to 123.3 | CC(C)(C)c1cc2c(O)c(c1)Cc1cc(C(C)(C)C)cc(c1OCC(=O)NCCO)Cc1cc(C(C)(C)C)cc(c1O)Cc1cc(C(C)(C)C)cc(c1OCC(=O)NCCc1ccccc1)COC2 [Compound 4R, 7,13,19,25-tetra-tert-butyl-28,30-di-hydroxy-27-(N-phenethyl-aminocarbonylmethoxyl)-29-(N-(2-hydroxyethyl)-aminocarbonylmethoxyl)-2,3-dihomo-3-oxacalix[4]arene] |  |  |  |  |  |  |  |  |  |  |  |  |  |  |  |
| 144.4 to 146.2 | CC(C)(C)c1cc2c(O)c(c1)Cc1cc(C(C)(C)C)cc(c1OCC(=O)NCCO)Cc1cc(C(C)(C)C)cc(c1O)Cc1cc(C(C)(C)C)cc(c1OCC(=O)N(CCO)CCO)COC2 [Compound 4S, 7,13,19,25-tetra-tert-butyl-28,30-di-hydroxy-27-(N,N-bis(2-hydroxyethyl)-aminocarbonylmethoxyl)-29-(N-(2-hydroxyethyl)-aminocarbonylmethoxyl)-2,3-dihomo-3-oxacalix[4]arene] |  |  |  |  |  |  |  |  |  |  |  |  |  |  |  |
|  | CC(=O)O[C@H]1C(=O)[C@@]2(C)[C@H]([C@H](OC(=O)c3ccccc3)[C@]3(O)C[C@H](OC(=O)[C@H](O)[C@@H](NC(=O)c4ccccc4)c4ccccc4)C(C)=C1C3(C)C)[C@]1(OC(C)=O)CO[C@@H]1C[C@@H]2O [Paclitaxel, paclitaxel, reference compound] |  |  |  |  |  |  |  |  |  |  | 0.0008 | 0.001 | 0.0027 | 0.005 | 0.00059 |
